From the SangsterLogP compilation

| logP | Compound |
| --- | --- |
| 6.63 | CCC(C)CNC(=O)CC(O)C(CC1CCCCC1)NC(=O)C(CCCCNC(=S)NC)NC(=O)C(Cc1ccc2ccccc2c1)Cc1cccc2ccccc12 (stereo unspecified) |
| 5.32 | CCC(C)CNC(=O)CC(O)C(CC(C)C)NC(=O)C(CC#CCNC(C)=O)NC(=O)C(Cc1ccc2ccccc2c1)Cc1cccc2ccccc12 (stereo unspecified) |
| 6.6 | CCC(C)CNC(=O)CC(O)C(CC(C)C)NC(=O)C(CCCCNC(=S)Nc1ccccc1)NC(=O)C(Cc1ccc2ccccc2c1)Cc1cccc2ccccc12 (stereo unspecified) |
| 6.7 | CCC(C)CNC(=O)CC(O)C(CC(C)C)NC(=O)C(CCCCNS(=O)(=O)c1ccc(C)cc1)NC(=O)C(Cc1ccc2ccccc2c1)Cc1cccc2ccccc12 (stereo unspecified) |
| 5.71 | CCC(C)CNC(=O)CC(O)C(CC(C)C)NC(=O)C(CCCCNC(=S)NC)NC(=O)C(Cc1ccc2ccccc2c1)Cc1cccc2ccccc12 (stereo unspecified) |
| 5.51 | CCC(C)CNC(=O)C(F)(F)C(O)C(CC(C)C)NC(=O)C(CCCCNC(=NC#N)SC)NC(=O)C(Cc1ccc2ccccc2c1)Cc1cccc2ccccc12 (stereo unspecified) |
| 7.09 | CCC(C)CNC(=O)CC(O)C(CC(C)C)NC(=O)C(CCCn1cccc1)NC(=O)C(Cc1ccc2ccccc2c1)Cc1cccc2ccccc12 (stereo unspecified) |
| 5.41 | CCC(C)CNC(=O)CC(O)C(CC(C)C)NC(=O)C(CCCCCNC(=S)NC)NC(=O)C(Cc1ccc2ccccc2c1)Cc1cccc2ccccc12 (stereo unspecified) |
| 4.38 | CCC(C)CNC(=O)CC(O)C(CC(C)C)NC(=O)C(CCCCNC(C)=O)NC(=O)C(Cc1ccc2ccccc2c1)Cc1cccc2ccccc12 (stereo unspecified) |
| 5.63 | CCC(C)CNC(=O)CC(O)C(CC(C)C)NC(=O)C(CCCCNC(=O)NC)NC(=O)C(Cc1ccc2ccccc2c1)Cc1cccc2ccccc12 (stereo unspecified) |
| 5.64 | CCC(C)CNC(=O)CC(O)C(CC(C)C)NC(=O)C(CCCCCCNC(=S)NC)NC(=O)C(Cc1ccc2ccccc2c1)Cc1cccc2ccccc12 (stereo unspecified) |
| 5.25 | CCC(C)CNC(=O)CC(O)C(CC(C)C)NC(=O)C(CCCCN)NC(=O)C(Cc1ccc2ccccc2c1)Cc1cccc2ccccc12 (stereo unspecified) |
| 7.21 | CCC(C)CNC(=O)CC(O)C(CC(C)C)NC(=O)C(CCCCn1cccc1)NC(=O)C(CC1=Cc2ccccc2C1)Cc1cccc2ccccc12 (stereo unspecified) |
| 4.67 | CSC(=NC#N)NCCCCC(NC(=O)C(Cc1ccc2ccccc2c1)Cc1cccc2ccccc12)C(=O)NC(CC(C)C)C(O)CC(=O)NCCN1CCOCC1 (stereo unspecified) |
| 5.31 | CCC(C)CC(=O)CC(O)C(CC(C)C)NC(=O)C(CCCCNC(N)=O)NC(=O)C(Cc1ccc2ccccc2c1)Cc1cccc2ccccc12 (stereo unspecified) |
| 5.23 | CCC(C)CNC(=O)CC(O)C(CC(C)C)NC(=O)C(CC=CCNC(=S)NC)NC(=O)C(Cc1ccc2ccccc2c1)Cc1cccc2ccccc12 (stereo unspecified) |
| 5.56 | CCC(C)CNC(=O)CC(O)C(CC(C)C)NC(=O)C(CC=CCNC(C)=O)NC(=O)C(Cc1ccc2ccccc2c1)Cc1cccc2ccccc12 (stereo unspecified) |
| 3.91 | CNC(=S)NCCCCC(NC(=O)C(Cc1ccc2ccccc2c1)Cc1cccc2ccccc12)C(=O)NC(CC(C)C)C(O)CC(=O)NCCN1CCOCC1 (stereo unspecified) |

Second part, the compound before the results:

| Compound | logP |
| --- | --- |
| CNC(=S)NCCCCC(NC(=O)C(Cc1ccccc1)NS(=O)(=O)N1CCOCC1)C(=O)NC(CC1CCCCC1)C(O)CC(=O)NCCN1CCOCC1 (stereo unspecified) | 2.26 |
| CNC(=S)NCCCCC(NC(=O)C(CC(=O)N1CCOCC1)Cc1cccc2ccccc12)C(=O)NC(CC1CCCCC1)C(O)CC(=O)NCCN1CCOCC1 (stereo unspecified) | 1.68 |
| CC(C)CC(NC(=O)C(CCCCNC(=O)OCc1ccccc1)NC(=O)C(Cc1ccccc1)NS(=O)(=O)N1CCOCC1)C(=O)C(F)(F)C(=O)NCCN1CCOCC1 (stereo unspecified) | 2.32 |
| O=CNCC#CCC(NC(=O)C(Cc1cccc2ccccc12)Cc1cccc2ccccc12)C(=O)NC(CC1CCCCC1)C(O)CC(=O)NCCN1CCOCC1 (stereo unspecified) | 5.44 |
| CNC(=S)NCCCCC(NC(=O)C(Cc1ccccc1)NS(=O)(=O)N(C)C)C(=O)NC(CC1CCCCC1)C(O)CC(=O)NCCN1CCOCC1 (stereo unspecified) | 2.41 |
| CC(C)CC(NC(=O)C(CCCCNC(=N)N[N+](=O)[O-])NC(=O)C(CC(=O)N1CCOCC1)Cc1cccc2ccccc12)C(O)CC(=O)NCCN1CCOCC1 (stereo unspecified) | 1.95 |
| CNC(=S)NCCCCC(NC(=O)C(Cc1ccc2ccccc2c1)Cc1cccc2ccccc12)C(=O)NC(CC(C)C)C(O)CC(=O)NC(CC(C)C)C(=O)NCc1ccccc1 (stereo unspecified) | 6.7 |
| CNC(=S)NCC#CCC(NC(=O)C(Cc1ccc2ccccc2c1)Cc1cccc2ccccc12)C(=O)NC(CC1CCCCC1)C(O)CC(=O)NCCN1CCOCC1 (stereo unspecified) | 5.44 |
| CNC(=S)NCC#CCC(NC(=O)C(Cc1ccccc1)NS(=O)(=O)N1CCOCC1)C(=O)NC(CC1CCCCC1)C(O)CC(=O)NCCN1CCOCC1 (stereo unspecified) | 2.9 |
| CC(C)CC(NC(=O)CC(O)C(CC(C)C)NC(CCCCNC(=N)N[N+](=O)[O-])NC(=O)C(Cc1ccc2ccccc2c1)Cc1cccc2ccccc12)C(=O)NCc1ccccc1 (stereo unspecified) | 5.51 |
| CCC(C)CNC(=O)CC(O)C(CC(C)C)NC(=O)C(CCCCCNC(=N)N[N+](=O)[O-])NC(=O)C(Cc1ccc2ccccc2c1)Cc1cccc2ccccc12 (stereo unspecified) | 5.1 |
| CC(=O)NCC#CCC(NC(=O)C(Cc1ccccc1)NS(=O)(=O)N1CCOCC1)C(=O)NC(CC1CCCCC1)C(O)CC(=O)NCCN1CCOCC1 (stereo unspecified) | 2.12 |
| CNC(=S)NCCCCC(NC(=O)C(Cc1ccccc1)CS(=O)(=O)C(C)(C)C)C(=O)NC(CC1CCCCC1)C(O)CC(=O)NCCN1CCOCC1 (stereo unspecified) | 2.64 |
| CC(C)CC(NC(=O)C(CCCCNC(=N)N[N+](=O)[O-])NC(=O)C(Cc1cccc2ccccc12)Cc1cccc2ccccc12)C(O)CC(=O)NCCN1CCOCC1 (stereo unspecified) | 4.09 |
| CNC(=S)NCCCCC(C(=O)NC(CC1CCCCC1)C(O)C(F)(F)C(=O)NCCN1CCOCC1)C(=O)C(Cc1ccccc1)NS(=O)(=O)N1CCOCC1 (stereo unspecified) | 2.93 |
| O=C(CC(O)C(CC1CCCCC1)NC(=O)C(NC(=O)C(Cc1ccccc1)NS(=O)(=O)N1CCOCC1)C1=CN=N1)NCCN1CCOCC1 (stereo unspecified) | 2.25 |
| CNC(=S)NCCCCC(NC(=O)C(Cc1ccc2ccccc2c1)Cc1cccc2ccccc12)C(=O)NC(CC(C)C)C(O)C(F)(F)C(=O)NCCN1CCOCC1 (stereo unspecified) | 5.5 |
| N=C(NCC#CCC(NC(=O)C(Cc1cccc2ccccc12)Cc1cccc2ccccc12)C(=O)NC(CC1CCCCC1)C(O)CC(=O)NCCN1CCOCC1)N[N+](=O)[O-] (stereo unspecified) | 4.73 |
| CC(C)CC(NC(=O)CC(O)C(CC(C)C)NC(=O)C(CCCCNC(=O)OCc1ccccc1)NC(=O)C(Cc1ccc2ccccc2c1)Cc1cccc2ccccc12)C(=O)NCc1ccccc1 (stereo unspecified) | 7.69 |
| CNC(=S)NCCCCC(NC(=O)C(CC(=O)N1CCOCC1)Cc1cccc2ccccc12)C(=O)NC(CC(C)C)C(O)CC(=O)NCCN1CCOCC1 (stereo unspecified) | 2.43 |
| CC(C)(C)OC(=O)NCC#CCC(NC(=O)C(Cc1ccc2ccccc2c1)Cc1cccc2ccccc12)C(=O)NC(CC1CCCCC1)C(O)CC(=O)NCCN1CCOCC1 (stereo unspecified) | 6 |
| CNC(=S)NCCCCC(NC(=O)C(Cc1ccc2ccccc2c1)Cc1cccc2ccccc12)C(=O)NC(CC1CCCCC1)C(O)CC(=O)NCCN1CCOCC1 (stereo unspecified) | 5.46 |
| CCC(C)CNC(=O)CC(O)C(CC(C)C)NC(=O)C(CCCCNP(=O)(Oc1ccccc1)Oc1ccccc1)NC(=O)C(Cc1ccc2ccccc2c1)Cc1cccc2ccccc12 (stereo unspecified) | 7.88 |
